Assay results taken from PubChem BioAssay AID2060626 (Molecular Pharmacology Branch, DTP, NCI, 2025).

Tested on: 168753-222-R-J1-PDC complex spheroid viability
Experiment: Anticancer human tumor 168753-222-R-J1-PDC patient-derived bladder carcinoma cell line growth inhibition [CLK]
Conditions: for IC50: curve of first compound; for viability, T/C: stronger effect = lower value
From the text: A high-throughput screen of multi-cell type tumor spheroids was designed to identify active combinations of […] and targeted small molecules. Complex spheroids include a stromal component modeled by human endothelial cells (HUVEC) and fibroblasts modeled by human mesenchymal stem cells (MSCs). The concentration ranges selected for each drug and investigational agent were based upon clinically achievable concentrations if the clinical Cmax of the agent was known.
Compounds. The drugs and investigational agents: cirtuvivint (SM08502; NSC835563), CC-671 (NSC850746), vemurafenib (NSC761431), tapotoclax (NSC804041), sotorasib (NSC818433), adagrasib (NSC831453), MRTX-1133 (NSC836407), BAY2416964 (NSC825713), copanlisib (NSC816437), inavolisib (NSC800729), abemaciclib (NSC768073), osimertinib (NSC779217), entinostat (NSC756642), eltanexor (KPT-8602, NSC794443), venetoclax (NSC766270), ceralasertib (NSC777638), bortezomib (NSC756655), olaparib (NSC753686), talazoparib (NSC767125), alisertib (NSC759677), peposertib (NSC802822), gemcitabine (NSC613327), 5-fluorouracil (NSC19893), SN-38 (NSC673596), oxaliplatin (NSC266046), paclitaxel (NSC125973), and doxorubicin (NSC123127), were obtained from the National Cancer Institute (NCI) Developmental Therapeutics Program Chemical Repository. The FDA-approved anticancer drug set is available from the Developmental Therapeutics Program at https://dtp.cancer.gov/organization/dscb/obtaining/available plates.htm. […] The stock solutions were prepared in dimethyl sulfoxide (DMSO, Sigma-Aldrich, St. Louis, MO, cat. D2650), except for the platinum complexes which were prepared in saline (Quality Biological, Gaithersburg, MD, cat. 114-055-101), at 800-fold the tested concentration and stored at -70 degrees C prior to their use. All drugs and investigational agents were tested over a range starting from a high concentration at or near the clinical Cmax and decreasing in half-log increments. If the clinical Cmax for an agent had not been determined, the highest concentration tested was 10 microM.
Cell Culture. All cells were maintained in an incubator at 37 degrees C and 5% CO2 with 95% humidity. The PDC lines were cultured according to standard operating procedures established by the NCI PDMR. Briefly, all PDCs were thawed and cultured in Matrigel-coated flasks prepared with a working solution of 1X Ham's F-12 nutrient mix, without supplementation (Invitrogen, Waltham, MA, cat. 11765054), 100 U/mL penicillin-streptomycin (Invitrogen, cat. 15140122), and 2.5% Matrigel (Corning Inc., Corning, NY, cat. 354248) for the first three passages. The 947758-054-R-J2-PDC line was cultured in 6B/Colon 1A media, which includes advanced DMEM/F-12 (Thermo Fisher Scientific, cat. 12634028), 10 mM HEPES (Thermo Fisher Scientific, cat. 15630080), 1X GlutaMAX supplement (Thermo Fisher Scientific, cat. 35050061), 0.1 mg/mL primocin (InvivoGen, cat. ant-pm-2), 10% defined fetal bovine serum, heat inactivated (HyClone Laboratories Inc., cat. SH30070.03HI), 1.25 mM N-Acetyl-L-cysteine (Sigma-Aldrich, cat. A9165), 10 mM nicotinamide (Sigma-Aldrich, cat. N0636), 1X B-27 supplement (Thermo Fisher Scientific, cat. 17504044), 1X N-2 supplement (Thermo Fisher Scientific, cat. 17502048), and 10 microM Y-27632 dihydrochloride (Tocris Bioscience, cat. 1254). The 876862-298-R-J1-PDC was cultured in 6E media, which includes all 6B/Colon 1A media components plus 50% L-WRN conditioned media (ATCC, cat. CRL-3276), 50 ng/mL recombinant human EGF recombinant protein (hEGF; Thermo Fisher Scientific, cat. PHG0311), 10 ng/mL recombinant human fibroblast growth factor 10 (hGFG-10; PeproTech, cat. 100-26), 1 ng/mL recombinant human fibroblast growth factor 2 (hFGF-2; PeproTech, cat. 100-18B), and 1 µM prostaglandin E2 (PGE2; Tocris, cat. 2296). The 227483-062-R1-J1-PDC line was cultured in Panc media, containing all 6E components except hFGF-2, with the addition of 500 nM SB-431542 (Selleckchem, cat. S1067) and 10 nM gastrin (Tocris, cat. 3006). […]

[1] = second compound 0.0316 µM, first compound 0.0316 µM
[2] = second compound 0.0316 µM, first compound 0.1 µM
[3] = second compound 0.0316 µM, first compound 0.316 µM
[4] = second compound 0.0316 µM, first compound 1 µM
[5] = second compound 0.1 µM, first compound 0.0316 µM
[6] = second compound 0.1 µM, first compound 0.1 µM
[7] = second compound 0.1 µM, first compound 0.316 µM
[8] = second compound 0.1 µM, first compound 1 µM
[9] = second compound 0.316 µM, first compound 0.0316 µM
[10] = second compound 0.316 µM, first compound 0.1 µM
[11] = second compound 0.316 µM, first compound 0.316 µM
[12] = second compound 0.316 µM, first compound 1 µM
[13] = second compound 1 µM, first compound 0.0316 µM
[14] = second compound 1 µM, first compound 0.1 µM
[15] = second compound 1 µM, first compound 0.316 µM
[16] = second compound 1 µM, first compound 1 µM
[17] = second compound 3.16 µM, first compound 0.0316 µM
[18] = second compound 3.16 µM, first compound 0.1 µM
[19] = second compound 3.16 µM, first compound 0.316 µM
[20] = second compound 3.16 µM, first compound 1 µM
[21] = second compound 10 µM, first compound 0.0316 µM
[22] = second compound 10 µM, first compound 0.1 µM
[23] = second compound 10 µM, first compound 0.316 µM
[24] = second compound 10 µM, first compound 1 µM
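Note: viability measured after seven days of drug exposure.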
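Throughout, for viability, T/C: luminescence signal used as surrogate for viable cell amount; 100% = DMSO vehicle control wells.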

SMILES: CC1(C)CCC(CN2CCN(c3ccc(C(=O)NS(=O)(=O)c4ccc(NCC5CCOCC5)c([N+](=O)[O-])c4)c(Oc4cnc5[nH]ccc5c4)c3)CC2)=C(c2ccc(Cl)cc2)C1 + CN1CCN(c2cc(C(=O)Nc3cc4cc(-c5cnn(C)c5)ccc4cn3)ccn2)CC1
- IC50 (second compound 0.0316 µM): 675 nM
- IC50 (second compound 0.1 µM): 154 nM
- IC50 (second compound 0.316 µM): < 31.6 nM
- IC50 (second compound 1 µM): < 31.6 nM
- IC50 (second compound 3.16 µM): < 31.6 nM
- IC50 (second compound 10 µM): < 31.6 nM
- viability, T/C [1]: 74.8%
- viability, T/C [2]: 84.6%
- viability, T/C [3]: 55.5%
- viability, T/C [4]: 41.3%
- viability, T/C (second compound 0.0316 µM, first compound 3.16 µM): 31.6%
- viability, T/C (second compound 0.0316 µM, first compound 10 µM): 10.2%
- viability, T/C [5]: 69.7%
- viability, T/C [6]: 60.5%
- viability, T/C [7]: 28.1%
- viability, T/C [8]: 35.8%
- viability, T/C (second compound 0.1 µM, first compound 3.16 µM): 33.7%
- viability, T/C (second compound 0.1 µM, first compound 10 µM): 10.3%
- viability, T/C [9]: 10.3%
- viability, T/C [10]: 10.3%
- viability, T/C [11]: 8.72%
- viability, T/C [12]: 8.03%
- viability, T/C (second compound 0.316 µM, first compound 3.16 µM): 8.36%
- viability, T/C (second compound 0.316 µM, first compound 10 µM): 7.08%
- viability, T/C [13]: 0.25%
- viability, T/C [14]: 0.31%
- viability, T/C [15]: 0.77%
- viability, T/C [16]: 0.22%
- viability, T/C (second compound 1 µM, first compound 3.16 µM): 0.16%
- viability, T/C (second compound 1 µM, first compound 10 µM): 1.27%
- viability, T/C [17]: 0.41%
- viability, T/C [18]: 0.29%
- viability, T/C [19]: 0.71%
- viability, T/C [20]: 0.15%
- viability, T/C (second compound 3.16 µM, first compound 3.16 µM): 1.14%
- viability, T/C (second compound 3.16 µM, first compound 10 µM): 0.49%
- viability, T/C [21]: 0.2%
- viability, T/C [22]: 0.75%
- viability, T/C [23]: 0.51%
- viability, T/C [24]: 0.26%
- viability, T/C (second compound 10 µM, first compound 3.16 µM): 0.35%
- viability, T/C (second compound 10 µM, first compound 10 µM): 1.21%

SMILES: CCN1CCN(Cc2ccc(Nc3ncc(F)c(-c4cc(F)c5nc(C)n(C(C)C)c5c4)n3)nc2)CC1 + CNC(=O)c1ccc(Nc2nc(OC3CCCC3)c3c(-c4ccc5nc(C)oc5c4)c[nH]c3n2)c(OC)c1
- IC50 (second compound 0.0316 µM): > 1000 nM
- IC50 (second compound 0.1 µM): > 1000 nM
- IC50 (second compound 0.316 µM): 85.5 nM
- IC50 (second compound 1 µM): < 3.16 nM
- IC50 (second compound 3.16 µM): < 3.16 nM
- IC50 (second compound 10 µM): < 3.16 nM
- viability, T/C (second compound 0.0316 µM, first compound 0.00316 µM): 103%
- viability, T/C (second compound 0.0316 µM, first compound 0.01 µM): 104%
- viability, T/C [1]: 79.3%
- viability, T/C [2]: 77%
- viability, T/C [3]: 65.5%
- viability, T/C [4]: 67.1%
- viability, T/C (second compound 0.1 µM, first compound 0.00316 µM): 92.9%
- viability, T/C (second compound 0.1 µM, first compound 0.01 µM): 88.5%
- viability, T/C [5]: 78.8%
- viability, T/C [6]: 70.1%
- viability, T/C [7]: 70.4%
- viability, T/C [8]: 55.7%
- viability, T/C (second compound 0.316 µM, first compound 0.00316 µM): 83.6%
- viability, T/C (second compound 0.316 µM, first compound 0.01 µM): 77%
- viability, T/C [9]: 67.2%
- viability, T/C [10]: 46.3%
- viability, T/C [11]: 43%
- viability, T/C [12]: 44.6%
- viability, T/C (second compound 1 µM, first compound 0.00316 µM): 25.2%
- viability, T/C (second compound 1 µM, first compound 0.01 µM): 46.9%
- viability, T/C [13]: 25.2%
- viability, T/C [14]: 22.5%
- viability, T/C [15]: 19.4%
- viability, T/C [16]: 26.4%
- viability, T/C (second compound 3.16 µM, first compound 0.00316 µM): 26.3%
- viability, T/C (second compound 3.16 µM, first compound 0.01 µM): 20.9%
- viability, T/C [17]: 18.8%
- viability, T/C [18]: 15.4%
- viability, T/C [19]: 17%
- viability, T/C [20]: 17.7%
- viability, T/C (second compound 10 µM, first compound 0.00316 µM): 17.4%
- viability, T/C (second compound 10 µM, first compound 0.01 µM): 19.6%
- viability, T/C [21]: 17.4%
- viability, T/C [22]: 14.6%
- viability, T/C [23]: 15.1%
- viability, T/C [24]: 18.2%
